Assay: Cytotoxicity assay (AlamarBlue) in mock infected MT-2 cells
Format: cell-based
Conditions: human
Protocol: The present assay was used to screen candidate antiviral compounds by quantification of virus spread and production over several rounds of infection in vitro. MT-2, a HIV-1 permissive human T-cell line, was seeded in microtiter plates and was simultaneously treated with serially diluted compound and inoculated with a HIV-1 NL4-3 viral clone engineered to express Renilla luciferase in place of Nef. Following treatment, the culture was incubated for 96 hours. After the incubation, media was collected and used to estimate relative infectivity on the indicator cell line, TZM-bl. Additionally, viral spread was quantified by measuring luciferase activity via a commercially available luciferase substrate. In parallel, MT-2 cells were seeded and inoculated with mock virus in the presence of serially diluted compound. Compound toxicity was quantified 96 hours after treatment with AlamarBlue.
MT-2 (NIH Aids reagent program 237) cells were grown and maintained in an incubator at 37° C. with 5% CO2 using a basal medium of RPMI-1640 supplemented with 10% FBS. Cells were seeded in 100 μl at 2×10^4 cells/well in white walled 96-well microtiter plates. Candidate compounds were 3-fold serially diluted in the appropriate solvent. Solvent without compound was used as a no drug reference. Cells were inoculated at a multiplicity of 0.027 with an HIV-1 NL4-3 virus stock engineered to express Renilla luciferase in place of Nef. Diluted virus stock was first added to serially diluted compound. Compound and virus were delivered to cells in an equal volume (100 μl) and treated cultures were returned to the incubator for 96 hours. In parallel, plates for cytotoxicity estimates were prepared in the same way except cells were plated in clear walled 96-well microtiter plates and were mock infected.
At 96 hours post treatment, 20 μl AlamarBlue proliferation reagent was added to 200 μl treated and mock infected cultures and incubated for 3 hours at 37° C. with 5% CO2 then read at 545, 590 nm on fluorescence plate reader (Biotek).
For all assays, data was imported into Accelrys Assay Explorer 3.3. In Assay Explorer, % inhibition (antiviral or cytotoxicity) was calculated using the solvent control as a reference by the following equation: 1−(SignalCompound/SignalReference). The % Inhibition and compound concentration data was fitted using the following 4-parameter logistic model (Assay Explorer model 42):
[formula] where X is compound concentration, Y is % inhibition, D is the maximum % Inhibition (constrained to 100%), C is IC50 value or inflection point, B is the hill slope, and A is the minimum % inhibition (constrained to 0%). The IC50 value is reported as the EC50 or CC50 depending on the assay endpoint. EC50 represents the effective concentration at which virus replication is inhibited by 50 percent. CC50 represents the concentration that results in the death of 50 percent of the host cells. The selectivity or therapeutic index (SI or TI), is the ratio of CC50 over EC50 and represents the relative effectiveness in inhibiting viral replication compared to inducing cell death.

Compound | CC50 at 96 h [µM]
COc1cc2c(cc1OCc1ccccc1)CCNC2/C=C/c1cc(C(C)C)c(OC)cc1C (stereo not drawn) [BW, 6-(benzyloxy)-7-methoxy-1-[(E)-2-[4-methoxy-2-methyl-5-(propan-2-yl)phenyl]ethenyl]-1,2,3,4-tetrahydroisoquinoline] | 1.88
COc1cc2c(cc1OCc1ccccc1)CCNC2/C=C/c1cc(OCC(C)(C)C)c(OC)cc1C (stereo not drawn) [BX, 6-(benzyloxy)-1-[(E)-2-[5-(2,2-dimethylpropoxy)-4-methoxy-2-methylphenyl]ethenyl]-7-methoxy-1,2,3,4-tetrahydroisoquinoline] | 3.4
COc1cc2c(cc1OCc1ccccc1)CCNC2/C=C/c1cc(OCC2CCNCC2)c(OC)cc1C (stereo not drawn) [BY, 6-(benzyloxy)-7-methoxy-1-[(E)-2-[4-methoxy-2-methyl-5-(piperidin-4-ylmethoxy)phenyl]ethenyl]-1,2,3,4-tetrahydroisoquinoline] | 1.97
COc1cc2c(cc1OCc1ccccc1)CCNC2/C=C/c1ccc(S(C)(=O)=O)cc1 (stereo not drawn) [BZ, 6-(benzyloxy)-1-[(E)-2-(4-methanesulfonylphenyl)ethenyl]-7-methoxy-1,2,3,4-tetrahydroisoquinoline] | 1
COc1ccc(/C=C/C2NCCc3cc(OCc4ccccc4)c(OC)cc32)c(OC)n1 (stereo not drawn) [CA, 6-(benzyloxy)-1-[(E)-2-(2,6-dimethoxypyridin-3-yl)ethenyl]-7-methoxy-1,2,3,4-tetrahydroisoquinoline] | 15.3
COc1cc2c(cc1OCc1ccccc1)CCNC2/C=C/c1ccc2c(c1)CCCO2 (stereo not drawn) [CB, 6-(benzyloxy)-1-[(E)-2-(3,4-dihydro-2H-1-benzopyran-6-yl)ethenyl]-7-methoxy-1,2,3,4-tetrahydroisoquinoline] | 5.36
COc1cc2c(cc1OCc1ccccc1)CCNC2/C=C/c1c(C)ccc2c1OCCC2 (stereo not drawn) [CC, 6-(benzyloxy)-7-methoxy-1-[(E)-2-(7-methyl-3,4-dihydro-2H-1-benzopyran-8-yl)ethenyl]-1,2,3,4-tetrahydroisoquinoline] | 5.44
COc1cc(C)c(/C=C/C2NCCc3cc(OCc4ccccc4)c(OC)cc32)cc1OCCCCN=[N+]=[N-] (stereo not drawn) [CD, 1-[(E)-2-[5-(4-azidobutoxy)-4-methoxy-2-methylphenyl]ethenyl]-6-(benzyloxy)-7-methoxy-1,2,3,4-tetrahydroisoquinoline] | 1.63
COc1cc2c(cc1OCc1ccccc1)CCNC2/C=C/c1cc2c(cc1C)OCCC2 (stereo not drawn) [CE, 6-(benzyloxy)-7-methoxy-1-[(E)-2-(7-methyl-3,4-dihydro-2H-1-benzopyran-6-yl)ethenyl]-1,2,3,4-tetrahydroisoquinoline] | 4.87
COc1cc2c(cc1OCc1ccccc1)CCNC2/C=C/c1cccc2c1OCCC2 (stereo not drawn) [CF, 6-(benzyloxy)-1-[(E)-2-(3,4-dihydro-2H-1-benzopyran-8-yl)ethenyl]-7-methoxy-1,2,3,4-tetrahydroisoquinoline] | 9.1
COc1cc2c(cc1OCc1ccccc1)CCNC2/C=C/c1cc2c(cc1C)OCC2 (stereo not drawn) [CG, 6-(benzyloxy)-7-methoxy-1-[(E)-2-(6-methyl-2,3-dihydro-1-benzofuran-5-yl)ethenyl]-1,2,3,4-tetrahydroisoquinoline] | 4.8
COc1cc2c(cc1OCc1ccccc1)CCNC2/C=C/c1cc2ccccc2n1C(=O)OC(C)(C)C (stereo not drawn) [CH, tert-butyl 2-[(E)-2-[6-(benzyloxy)-7-methoxy-1,2,3,4-tetrahydroisoquinolin-1-yl]ethenyl]-1H-indole-1-carboxylate] | 3.48
COc1cc2c(cc1OCc1ccccc1)CCNC2/C=C/c1cn(C(=O)OC(C)(C)C)c2ccccc12 (stereo not drawn) [CI, tert-butyl 3-[(E)-2-[6-(benzyloxy)-7-methoxy-1,2,3,4-tetrahydroisoquinolin-1-yl]ethenyl]-1H-indole-1-carboxylate] | 4.98
COc1cc2c(cc1OCc1ccccc1)CCNC2/C=C/c1c[nH]c2ccccc12 (stereo not drawn) [CJ, 6-(benzyloxy)-1-[(E)-2-(1H-indol-3-yl)ethenyl]-7-methoxy-1,2,3,4-tetrahydroisoquinoline] | 6.55
CCOC(=O)CCCOc1cc(/C=C/C2NCCc3cc(OCc4ccccc4)c(OC)cc32)ccc1OC (stereo not drawn) [CV, ethyl 4-{5-[(E)-2-[6-(benzyloxy)-7-methoxy-1,2,3,4-tetrahydroisoquinolin-1-yl]ethenyl]-2-methoxyphenoxy}butanoate] | 2.7
COc1cc2c(cc1OCc1ccccc1)CCNC2/C=C/c1ccccc1NC(=O)OC(C)(C)C (stereo not drawn) [CW, tert-butyl N-{2-[(E)-2-[6-(benzyloxy)-7-methoxy-1,2,3,4-tetrahydroisoquinolin-1-yl]ethenyl]phenyl}carbamate] | 23.6
COc1cc2c(cc1OCc1ccccc1)CCNC2/C=C/c1ccccc1N (stereo not drawn) [CX, 2-[(E)-2-[6-(benzyloxy)-7-methoxy-1,2,3,4-tetrahydroisoquinolin-1-yl]ethenyl]aniline] | 20.8
COc1cc2c(cc1OCc1ccccc1)CCNC2/C=C/c1ccc(OC)c(C(F)(F)F)c1 (stereo not drawn) [CY, 6-(benzyloxy)-7-methoxy-1-[(E)-2-[4-methoxy-3-(trifluoromethyl)phenyl]ethenyl]-1,2,3,4-tetrahydroisoquinoline] | 4
COc1cc2c(cc1OCc1ccccc1)CCNC2/C=C/c1cc(C)c(OC)c(C(F)(F)F)c1 (stereo not drawn) [CZ, 6-(benzyloxy)-7-methoxy-1-[(E)-2-[4-methoxy-3-methyl-5-(trifluoromethyl)phenyl]ethenyl]-1,2,3,4-tetrahydroisoquinoline] | 4
COc1cc2c(cc1OCc1ccccc1)CCNC2/C=C/c1ccccc1C(F)(F)F (stereo not drawn) [DA, 6-(benzyloxy)-7-methoxy-1-[(E)-2-[2-(trifluoromethyl)phenyl]ethenyl]-1,2,3,4-tetrahydroisoquinoline] | 10
COc1cc2c(cc1OCc1ccccc1)CCNC2/C=C/c1cccc(C(F)(F)F)c1 (stereo not drawn) [DB, 6-(benzyloxy)-7-methoxy-1-[(E)-2-[3-(trifluoromethyl)phenyl]ethenyl]-1,2,3,4-tetrahydroisoquinoline] | 10
COc1cc2c(cc1OCc1ccccc1)CCNC2/C=C/c1ccccc1N(C)C (stereo not drawn) [DC, 2-[(E)-2-[6-(benzyloxy)-7-methoxy-1,2,3,4-tetrahydroisoquinolin-1-yl]ethenyl]-N,N-dimethylaniline] | 10
COCCOc1ccccc1/C=C/C1NCCc2cc(OCc3ccccc3)c(OC)cc21 (stereo not drawn) [DE, 6-(benzyloxy)-7-methoxy-1-[(E)-2-[2-(2-methoxyethoxy)phenyl]ethenyl]-1,2,3,4-tetrahydroisoquinoline] | 10
COc1cc2c(cc1OCc1ccccc1)CCNC2/C=C/c1ccc2c(c1)OC(F)(F)O2 (stereo not drawn) [DF, 6-(benzyloxy)-1-[(E)-2-(2,2-difluoro-2H-1,3-benzodioxol-5-yl)ethenyl]-7-methoxy-1,2,3,4-tetrahydroisoquinoline] | 10
COc1ccccc1/C=C/C1NCCc2cc(OCc3ccccc3)c(OC)cc21 (stereo not drawn) [DG, 6-(benzyloxy)-7-methoxy-1-[(E)-2-(2-methoxyphenyl)ethenyl]-1,2,3,4-tetrahydroisoquinoline] | 9
COc1cc2c(cc1OCc1ccccc1)CCNC2/C=C/c1ccccc1N1CCOCC1 (stereo not drawn) [DH, 6-(benzyloxy)-7-methoxy-1-[(E)-2-[2-(morpholin-4-yl)phenyl]ethenyl]-1,2,3,4-tetrahydroisoquinoline] | 17.8
COc1ccc2cc(/C=C/C3NCCc4cc(OCc5ccccc5)c(OC)cc43)ccc2c1 (stereo not drawn) [DI, 6-(benzyloxy)-7-methoxy-1-[(E)-2-(6-methoxynaphthalen-2-yl)ethenyl]-1,2,3,4-tetrahydroisoquinoline] | 5.84
COc1cc2c(cc1OCc1ccccc1)CCNC2/C=C/c1ccc(-c2cccnc2)cc1 (stereo not drawn) [DJ, 6-(benzyloxy)-7-methoxy-1-[(E)-2-[4-(pyridin-3-yl)phenyl]ethenyl]-1,2,3,4-tetrahydroisoquinoline] | 5.86
COc1cc2c(cc1OCc1ccccc1)CCNC2/C=C/c1ccc(-n2ccnc2)cc1 (stereo not drawn) [DK, 6-(benzyloxy)-1-[(E)-2-[4-(1H-imidazol-1-yl)phenyl]ethenyl]-7-methoxy-1,2,3,4-tetrahydroisoquinoline] | 9.13
COc1cc2c(cc1OCc1ccccc1)CCNC2/C=C/c1ccc2cccnc2c1 (stereo not drawn) [DL, 7-[(E)-2-[6-(benzyloxy)-7-methoxy-1,2,3,4-tetrahydroisoquinolin-1-yl]ethenyl]quinoline] | 7
